This passage reports melting point results from patent US7262212B2, “2,3-dihydro-6-nitroimidazo[2,1-b]oxazoles” (Otsuka Pharmaceutical Co., Ltd., priority 2002, dated 2007).

For `O=C(Cc1ccc(C(F)(F)F)cc1)N1CCC2(CC1)Cn1cc([N+](=O)[O-])nc1O2`, the melting point is 185 to 187 °C.

`COc1ccc(NC(=O)N2CCN(CC3(C)Cn4cc([N+](=O)[O-])nc4O3)CC2)cc1` (stereo not drawn) gave a melting point of 167 to 168 °C.

In turn, `CC1(CCN2CCN(Cc3ccc(-c4ccccc4)cc3)CC2)Cn2cc([N+](=O)[O-])nc2O1` (stereo not drawn) showed a melting point of 181 to 182 °C.

`CC1(CNC(=O)OCc2ccccc2)Cn2cc([N+](=O)[O-])nc2O1` (stereo not drawn) displayed a melting point of 171.3 to 172.2 °C.

`CC1(CN2CCC(=O)CC2)Cn2cc([N+](=O)[O-])nc2O1` (stereo not drawn) had a melting point of 124 to 126 °C.

In turn, `CC1(Cn2nc(-c3ccc(-c4ccccc4)cc3)oc2=O)Cn2cc([N+](=O)[O-])nc2O1` (stereo not drawn) displayed a melting point of 248 to 249 °C.

Consider `C[C@]1(COc2ccc(N3CC[S+]([O-])CC3)cc2)Cn2cc([N+](=O)[O-])nc2O1`, for which the melting point fell in the range of 198 to 200 °C.

`C[C@]1(CN2CCN(C(=O)c3ccc(C(F)(F)F)cc3)CC2)Cn2cc([N+](=O)[O-])nc2O1`: the melting point was 183 to 184 °C.

Compound `CNC(C1CCN(c2ccc(C#N)cc2)CC1)[C@]1(C)Cn2cc([N+](=O)[O-])nc2O1` (stereo partly drawn) displayed a melting point of 149 to 152 °C.

The compound `CC1(CCN2CCN(c3nc4ccccc4o3)CC2)Cn2cc([N+](=O)[O-])nc2O1` (stereo not drawn) gave a melting point of 187.6 to 189.6 °C.

As for `CCOC(=O)C1CCN(c2ccc(OC[C@@]3(C)Cn4cc([N+](=O)[O-])nc4O3)cc2)CC1`, the melting point was 208.2 to 211.5 °C.

`CCCCCC(C=NN1CCN(CC2(C)Cn3cc([N+](=O)[O-])nc3O2)CC1)=Cc1ccccc1` (stereo not drawn) yielded a melting point of 166.6 to 169.6 °C.

Take `C[C@]1(CN(CCOc2ccc(OC(F)(F)F)cc2)Cc2ccccc2)Cn2cc([N+](=O)[O-])nc2O1`: the melting point is 96.5 to 97 °C.

Regarding `CN1C(=O)C(C)(C)c2cc(COC(=O)N3CCN(C[C@@]4(C)Cn5cc([N+](=O)[O-])nc5O4)CC3)ccc21`, the melting point was 80 to 100 °C (dec.).

Take `O=C(Nc1ccccc1)N1CCC2(CC1)Cn1cc([N+](=O)[O-])nc1O2`: the melting point is 229 to 232 °C (dec.).

Compound `CC1(CN2CCN(C(=O)CCc3ccccc3)CC2)Cn2cc([N+](=O)[O-])nc2O1` (stereo not drawn) had a melting point of 166.8 to 169.1 °C.

The compound `CCn1c(=O)n(CC2(C)Cn3cc([N+](=O)[O-])nc3O2)c2cc(Cl)ccc21` (stereo not drawn) gave a melting point of 240.9 to 245.6 °C.

On to `C[C@]1(CN2CCC(N3CCN(C(=O)c4ccc(OC(F)(F)F)cc4)CC3)CC2)Cn2cc([N+](=O)[O-])nc2O1`, for which the melting point fell in the range of 137 to 138 °C.

As for `C[C@]1(COc2ccc(N3CCN(Cc4ccc(C(F)(F)F)cc4)CC3)cc2)Cn2cc([N+](=O)[O-])nc2O1`, the melting point is 205.5 to 207 °C.

`C[C@]1(CN2CCN(N=C3CCCCC3)CC2)Cn2cc([N+](=O)[O-])nc2O1` registered a melting point of 178.6 to 179.3 °C.

As to `CCCCCCn1c(=O)n(CC2(C)Cn3cc([N+](=O)[O-])nc3O2)c2cc(Cl)ccc21` (stereo not drawn), the melting point was 168.1 to 169.3 °C.

For `CC1(CN2CCN(c3ccc(-c4ccccc4)cc3)CC2)Cn2cc([N+](=O)[O-])nc2O1` (stereo not drawn), the melting point was 223 to 227.8 °C.

For `C[C@]1(CN2CCN(C(=O)Nc3ccc(Cl)cc3)CC2)Cn2cc([N+](=O)[O-])nc2O1`, the melting point was 156 to 159 °C (dec.).

`CC1(CCn2nc(-c3cnccn3)oc2=O)Cn2cc([N+](=O)[O-])nc2O1` (stereo not drawn): the melting point is 209 to 212 °C.

`CC1(CN2CCN(Cc3ccc(F)cc3)C2=O)Cn2cc([N+](=O)[O-])nc2O1` (stereo not drawn) returned a melting point of 182.5 to 183.3 °C.

On to `CC1(N2CCC(C(=O)c3ccc(OC(F)(F)F)cc3)CC2)Cn2cc([N+](=O)[O-])nc2O1` (stereo not drawn), for which the melting point lay in the range of 165 to 167 °C.

`C[C@]1(CN2CCN(C(=O)OCC=Cc3cccc(Cl)c3)CC2)Cn2cc([N+](=O)[O-])nc2O1.O=C(O)/C=C\C(=O)O` yielded a melting point of 150 to 151 °C.

`CC1(CN2CCN(C(=O)Cc3ccccc3)CC2)Cn2cc([N+](=O)[O-])nc2O1` (stereo not drawn) registered a melting point of 175.2 to 175.9 °C.

`CC(C)NC(=O)N1CCN(CC2(C)Cn3cc([N+](=O)[O-])nc3O2)CC1` (stereo not drawn) returned a melting point of 175 to 176.3 °C.

`CC1(CN2CCN(c3ccc(C(F)(F)F)cc3)CC2)Cn2cc([N+](=O)[O-])nc2O1` (stereo not drawn): the melting point lay in the range of 159 to 160 °C.

For `CC(=O)N1CCC2(CC1)Cn1cc([N+](=O)[O-])nc1O2`, the melting point lay in the range of 232 to 234 °C.

In turn, `C[C@]1(CN2CCC(c3ccccc3)CC2)Cn2cc([N+](=O)[O-])nc2O1` displayed a melting point of 158.8 to 163.9 °C.

The compound `C[C@]1(CN2CCC(OCc3ccc(Cl)c(Cl)c3)CC2)Cn2cc([N+](=O)[O-])nc2O1` displayed a melting point of 132 to 136 °C.

For the compound `CC1(Cn2c(=O)oc3ccc(F)cc32)Cn2cc([N+](=O)[O-])nc2O1` (stereo not drawn), the melting point was 246.2 to 246.8 °C.

Consider `CCOC(=O)c1ccc2c(c1)n(CC1(C)Cn3cc([N+](=O)[O-])nc3O1)c(=O)n2C` (stereo not drawn), for which the melting point lay in the range of 265.8 to 266.7 °C.

`CC1(CN2CCN(CCCn3c(=O)oc4ccccc43)CC2)Cn2cc([N+](=O)[O-])nc2O1` (stereo not drawn) came in with a melting point of 123 to 126 °C.

In turn, `CC1(CN2CCC(OCc3ccc(Cl)cc3)CC2)Cn2cc([N+](=O)[O-])nc2O1` (stereo not drawn) displayed a melting point of 129 to 130 °C.

On to `C[C@]1(CN2CCN(S(=O)(=O)CCCc3ccc(Cl)cc3)CC2)Cn2cc([N+](=O)[O-])nc2O1`, for which the melting point was 150 to 151 °C.

`CC1(CN2CCC(Cc3ccc(Cl)cc3)CC2)Cn2cc([N+](=O)[O-])nc2O1` (stereo not drawn): the melting point was in the range of 109 to 110.5 °C.

Consider `CC(C)COC(=O)N1CCN(CC2(C)Cn3cc([N+](=O)[O-])nc3O2)CC1` (stereo not drawn), for which the melting point fell in the range of 176.5 to 177.3 °C.

Regarding `C[C@]1(CN2CCC(Cc3ccc(OC(F)(F)F)cc3)CC2)Cn2cc([N+](=O)[O-])nc2O1`, the melting point was in the range of 111 to 112.5 °C.

`CC(C)(C)OC(=O)N1CCN(c2ccc(OC[C@@]3(C)Cn4cc([N+](=O)[O-])nc4O3)cc2)CC1` showed a melting point of 230 to 232 °C.

`O=[N+]([O-])c1cn2c(n1)OC(CN1CCN(Cc3ccc(-c4ccccc4)cc3)CC1)C2` (stereo not drawn): the melting point was 183 to 185 °C (dec.).

Take `C[C@]1(CN2CCC(NCCc3ccc(C(F)(F)F)cc3)CC2)Cn2cc([N+](=O)[O-])nc2O1`: the melting point lay in the range of 80.7 to 84.2 °C.

Consider `C[C@]1(COc2ccc(N3CCSCC3)cc2)Cn2cc([N+](=O)[O-])nc2O1`, for which the melting point was 227.5 to 229 °C.

As to `CC(C)(C)OC(=O)N(CCc1ccc(C(F)(F)F)cc1)C1CCN(C[C@@]2(C)Cn3cc([N+](=O)[O-])nc3O2)CC1`, the melting point fell in the range of 206.8 to 208.6 °C.

On to `C[C@]1(COC(=O)N2CCC(Oc3ccc(C(F)(F)F)cc3)CC2)Cn2cc([N+](=O)[O-])nc2O1`, for which the melting point was 165 to 166 °C.

For `CN(CCN1CCN(Cc2ccc(C(F)(F)F)cc2)CC1)C[C@@]1(C)Cn2cc([N+](=O)[O-])nc2O1`, the melting point is 102 to 104.5 °C.

`C[C@]1(COc2ccc(C3CCN(Cc4ccc(OC(F)(F)F)cc4)CC3)cc2)Cn2cc([N+](=O)[O-])nc2O1` displayed a melting point of 186 to 188 °C.

`C[C@]1(COC(=O)N2CC=C(c3ccc(C(F)(F)F)cc3)CC2)Cn2cc([N+](=O)[O-])nc2O1` gave a melting point of 169 to 171 °C.

`CC1(Cn2ccnc2)Cn2cc([N+](=O)[O-])nc2O1` (stereo not drawn) returned a melting point of 245.5 to 247.8 °C.

Take `C[C@]1(COC(=O)N2CCc3cc(Cl)ccc32)Cn2cc([N+](=O)[O-])nc2O1`: the melting point was 189 to 191 °C.

`Cn1c(=O)n(CC2(C)Cn3cc([N+](=O)[O-])nc3O2)c2ccc(Cl)cc21` (stereo not drawn) came in with a melting point of 261.3 to 263.3 °C.

Regarding `CC1(CN2CCC(Cc3ccc(OC(F)(F)F)cc3)CC2)Cn2cc([N+](=O)[O-])nc2O1` (stereo not drawn), the melting point was 143.5 to 145 °C.

The compound `CC(C)OC(=O)N1CCN(CC2(C)Cn3cc([N+](=O)[O-])nc3O2)CC1` (stereo not drawn) registered a melting point of 158.3 to 159.8 °C.

Compound `CC1(Cn2nc(Cc3ccc(Cl)cc3)oc2=O)Cn2cc([N+](=O)[O-])nc2O1` (stereo not drawn) had a melting point of 151 to 153 °C.

`C[C@]1(COC(=O)N2CCC(Nc3ccc(C(F)(F)F)cc3)CC2)Cn2cc([N+](=O)[O-])nc2O1` gave a melting point of 137 to 140 °C.

As for `C[C@]1(CN2CCC(OCCc3ccc(C(F)(F)F)cc3)CC2)Cn2cc([N+](=O)[O-])nc2O1`, the melting point lay within 84.6 to 86.8 °C.

Compound `C[C@]1(COc2ccc(N3CCN(c4ccc(OC(F)(F)F)cc4)CC3)cc2)Cn2cc([N+](=O)[O-])nc2O1` came in with a melting point of 262.5 to 265 °C.

As for `CC1(Cn2nc(-c3ccc(F)cc3)oc2=O)Cn2cc([N+](=O)[O-])nc2O1` (stereo not drawn), the melting point is 188 to 191 °C.

Compound `C[C@]1(CN2CCC(N3CCN(C(=O)c4ccc(Cl)cc4)CC3)CC2)Cn2cc([N+](=O)[O-])nc2O1` showed a melting point of 174 to 175 °C.

Take `CC(=NN1CCN(C[C@@]2(C)Cn3cc([N+](=O)[O-])nc3O2)CC1)c1ccc(Cl)cc1`: the melting point lay in the range of 164.6 to 166.5 °C.

In turn, `C[C@]1(COC(=O)N2CCN(c3ccc(OC(F)(F)F)cc3)CC2)Cn2cc([N+](=O)[O-])nc2O1` came in with a melting point of 168 to 169 °C.

In turn, `CC1(CN2C(=O)c3ccccc3C2=O)Cn2cc([N+](=O)[O-])nc2O1` (stereo not drawn) came in with a melting point of 264.6 to 268.3 °C.

Turning to `C[C@]1(COc2ccc(N3CCN(C(=O)OCc4ccc(Cl)cc4)CC3)cc2)Cn2cc([N+](=O)[O-])nc2O1`, the melting point fell in the range of 184.5 to 187.5 °C.

`C[C@]1(COC(=O)N2CCc3cc(Cl)ccc3C2)Cn2cc([N+](=O)[O-])nc2O1`: the melting point was 180 to 182 °C.

`CCn1nnnc1CCC1(C)Cn2cc([N+](=O)[O-])nc2O1` (stereo not drawn) returned a melting point of 135 to 137 °C.

`C[C@]1(CN2CCC([S+]([O-])c3ccc(OC(F)(F)F)cc3)CC2)Cn2cc([N+](=O)[O-])nc2O1` (stereo partly drawn) registered a melting point of 107 to 109 °C.

`CN(C[C@@]1(C)Cn2cc([N+](=O)[O-])nc2O1)c1ccccc1`: the melting point fell in the range of 147 to 148 °C.

As for `CC1(COC(=O)N2CCN(c3ccc(OC(F)(F)F)cc3)CC2)Cn2cc([N+](=O)[O-])nc2O1` (stereo not drawn), the melting point fell in the range of 138 to 140 °C.

For the compound `Cc1ccc(CC(=O)N2CCN(CC3(C)Cn4cc([N+](=O)[O-])nc4O3)CC2)cc1` (stereo not drawn), the melting point fell in the range of 213 to 214 °C.

With `C[S+]([O-])c1ccc(COC(=O)N2CCN(CC3(C)Cn4cc([N+](=O)[O-])nc4O3)CC2)cc1` (stereo not drawn), the melting point is 117 to 121 °C.

By melting point is commonly meant the temperature, or range, at which the solid turns liquid.
